The source of these data is ChEMBL document CHEMBL3856190, “Novel spirothiazamenthane inhibitors of the influenza A M2 proton channel” (Eur J Med Chem, 2016).

Activity calls are given as the source filed them. No cut-off for these calls is given here. A value given as a limit tells only on which side of the number the result lay.

Data set [1] in a line: Antiviral activity against Influenza A virus A/Puerto Rico/8/34 expressing wild type M2 proton channel infected in MDCK cells assessed as inhibition of viral replication measured after 10 hrs by miniplaque assay. The format is functional, cell-based, Influenza A virus (A/Puerto Rico/8/1934(H1N1)).
In data set [2] the test system is MDCK. Description: Antiviral activity against amantadine-sensitive Influenza A virus A/Hong Kong/1/68(H3N2) infected in MDCK cells assessed as protection from virus-induced cell death at 1 uM measured after 72 hrs by MTT assay. The format is functional, cell-based. As to conditions: Influenza A virus (A/Hong Kong/1/1968(H3N2)). Background: Tetrazolium dyes change colour on reduction, which living cells bring about.

Data set [3] in a line: Inhibition of Influenza A virus A/udorn/72(H3N2) wild type M2 proton channel expressed in yeast assessed as growth restoration measured after 44 hrs by turbidometric assay. On the set-up: species or system Influenza A virus (A/udorn/1972(H3N2)).
Data set [4] is described as follows: Antiviral activity against Influenza A virus A/Puerto Rico/8/34 expressing wild type M2 proton channel infected in MDCK cells assessed as inhibition of viral replication at >= 0.8 uM measured after 10 hrs by miniplaque assay. The format is functional, Influenza A virus (A/Puerto Rico/8/1934(H1N1)).
A short description of data set [5]: Cytotoxicity against MDCK cells at 3 uM measured after 72 hrs by MTT assay. The class given is toxicity, cell-based, Canis lupus familiaris. As to conditions: dog.

For `NC12CC3CC(CC(C3)C1)C2` [AMANTADINE], the EC50 in data set [1] was 40 nM; in data set [3], 100 nM. The outcome in data set [2] was Active. Besides, in data set [4], the “inhibition (INH)” value was more than 90%. The Activity entry in data set [5] is recorded as “Non-Toxic”.

Usually EC50 stands for the concentration giving half of the maximal effect.
